Experimental data from patent US20230303540A1 (Merck Sharp & Dohme LLC, priority 2020, published 2023).

Target: GST-tagged truncated human mutant G2019S LRRK2 (Homo sapiens, UniProt Q5S007, G2019S)
Test: LRRK2 G2019S Km ATP LanthaScreen assay
Assay type: biochemical
Conditions: 134 μM ATP (Km ATP), LRRKtide substrate, mean IC50 values; read-out: LRRK2 pIC50 (converted)
In short: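 LanthaScreen TR-FRET read with fluorescein-LRRKtide and 134 μM ATP (Km) in Tris pH 8.5/10 mM MgCl2 buffer. The enzyme was preincubated 15 min with compound at room temperature, and the reaction ran 90 min at ambient temperature. Stopped with EDTA plus Tb anti-phospho-LRRKtide antibody; the 520/495 nm ratio gave a 4-parameter logistic IC50, mean of several runs.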

| Structure (SMILES) | IC50 [nM] |
| --- | --- |
| CC1(N2CCN(c3cc4nc(Nc5cnn(C(F)F)c5)ncc4cc3Cl)CC2)COC1 [Ex-4.57, 6-chloro-N-[1-(difluoromethyl)-1H-pyrazol-4-yl]-7-[4-(3-methyloxetan-3-yl)piperazin-1-yl]quinazolin-2-amine] | 4.13 |
| Clc1cc2cnc(Nc3cnn(C45CC(C4)C5)c3Cl)nc2cc1N1CCC2(CCCO2)CC1 [Ex-3.40, N-[1-(bicyclo[1.1.1]pentan-1-yl)-5-chloro-1H-pyrazol-4-yl]-6-chloro-7-(1-oxa-8-azaspiro[4.5]decan-8-yl) quinazolin-2-amine] | 9.76 |
| FC12CC(n3ncc(Nc4ncc5cc(Cl)c(N6CCNCC6)cc5n4)c3Cl)(C1)C2 [Ex-6.55, 6-chloro-N-(5-chloro-1-(3-fluorobicyclo[1.1.1]pentan-1-yl)-1H-pyrazol-4-yl)-7-(piperazin-1-yl)quinazolin-2-amine] | 2.11 |
| C[C@H]1COC(=O)N1c1ccc2cnc(Nc3cnn([C@@H]4CCN(C5COC5)C[C@H]4F)c3Cl)nc2c1 [Ex-7.2, (4S)-3-[2-({5-chloro-1-[(3R,4R)-3-fluoro-1-(oxetan-3-yl)piperidin-4-yl]-1H-pyrazol-4-yl}amino)quinazolin-7-yl]-4-methyl-1,3-oxazolidin-2-one] | 0.625 |
| Cc1c(Nc2ncc3cc(Cl)c(N4CCN(C5(C)COCC5O)CC4)cc3n2)cnn1C (single isomer, unassigned) [Ex-3.37, (3R,4R) or (3S,4S) 4-(4-{6-chloro-2-[(1,5-dimethyl-1H-pyrazol-4-yl)amino]quinazolin-7-yl}piperazin-1-yl)-4-methyloxolan-3-ol] | 29.9 |
| COCC12CC(n3cc(Nc4ncc5cc(Cl)c(N(C)C)cc5n4)cn3)(C1)C2 [Ex-3.18, 6-chloro-N-2-{1-[3-(methoxymethyl)bicyclo[1.1.1]pentan-1-yl]-1H-pyrazol-4-yl}-N-7-,N-7-dimethylquinazoline-2,7-diamine] | 1.95 |
| Cc1nn(C2CC3(C2)CN(C2COC2)C3)cc1Nc1ncc2ccc(N3C(=O)C4CCC3C4)cc2n1 (single isomer, unassigned) [Ex-8.5, (1R,4S) or (1S,4R)-2-(2-((3-methyl-1-(2-(oxetan-3-yl)-2-azaspiro[3.3]heptan-6-yl)-1H-pyrazol-4-yl)amino)quinazolin-7-yl)-2-azabicyclo[2.2.1]heptan-3-one] | 0.625 |
| C[C@]1(O)[C@@H]2CC[C@H]1CN(c1cc3nc(Nc4cnn(C56CC(C5)C6)c4Cl)ncc3cc1Cl)C2 [Ex-3.38, (8-syn)-3-(2-{[1-(bicyclo[1.1.1]pentan-1-yl)-5-chloro-1H-pyrazol-4-yl]amino}-6-chloroquinazolin-7-yl)-8-methyl-3-azabicyclo[3.2.1]octan-8-ol] | 6.62 |
| Cc1cc2cnc(Nc3cnn(C45CC(C4)C5)c3C)nc2cc1N1CCN(C2(C)CCOC2)CC1 (single isomer, unassigned) [Ex-2.4, (3S,4S or 3R,4R)-N-(1-(bicyclo[1.1.1]pentan-1-yl)-5-methyl-1H-pyrazol-4-yl)-6-methyl-7-(4-(3-methyltetrahydrofuran-3-yl)piperazin-1-yl)quinazolin-2-amine] | 0.279 |
| Cn1cc(Nc2ncc3ccc(N4C(=O)C5CCC4C5)cc3n2)c(C(F)(F)F)n1 (stereo not shown) [Ex-7.9, 2-(2-{[1-methyl-3-(trifluoromethyl)-1H-pyrazol-4-yl]amino}quinazolin-7-yl)-2-azabicyclo[2.2.1]heptan-3-one] | 34 |
| CC(C)(C)Cn1cc(Nc2ncc3cc(Cl)c(N4CCN(C5(C)COC5)CC4)cc3n2)cn1 [Ex-4.64, 6-chloro-N-[1-(2,2-dimethylpropyl)-1H-pyrazol-4-yl]-7-[4-(3-methyloxetan-3-yl)piperazin-1-yl]quinazolin-2-amine] | 9.73 |
| Cc1c(Nc2ncc3cc(Cl)c(N4CCN(C5COCC5O)CC4)cc3n2)cnn1C1CC1(F)F (single isomer, unassigned) [Ex-6.43, (3S,4S) or (3R,4R) 4-[4-(6-chloro-2-{[1-(2,2-(R) or (S)difluorocyclopropyl)-5-methyl-1H-pyrazol-4-yl]amino}quinazolin-7-yl)piperazin-1-yl]oxolan-3-ol] | 7.92 |
| C[C@H]1COC(=O)N1c1ccc2cnc(Nc3ccns3)nc2c1 [Ex-8.8, (4S)-4-methyl-3-{2-[(1,2-thiazol-5-yl)amino]quinazolin-7-yl}-1,3-oxazolidin-2-one] | 5.08 |
| Cc1c(Nc2ncc3cc(Cl)c(N4CCN(C5COCC5O)CC4)cc3n2)cnn1C(F)F (single isomer, unassigned) [Ex-13.6, (3S,4S) or (3R,4R)-4-(4-(6-chloro-2-((1-(difluoromethyl)-5-methyl-1H-pyrazol-4-yl)amino)quinazolin-7-yl)piperazin-1-yl)tetrahydrofuran-3-ol] | 0.668 |
| OCC1CCN(c2cc3nc(Nc4cnn(CC(F)F)c4Cl)ncc3cc2Cl)C1 (stereo not shown) [Ex-1.15, [1-(6-chloro-2-{[5-chloro-1-(2,2-difluoroethyl)-1H-pyrazol-4-yl]amino}quinazolin-7-yl)pyrrolidin-3-yl]methanol] | 5.49 |
| CCn1ncc(Nc2ncc3ccc(N4C(=O)CCC4C)cc3n2)c1C (single isomer, unassigned) [Ex-7.18, (R) or (S) 1-{2-[(1-ethyl-5-methyl-1H-pyrazol-4-yl)amino]quinazolin-7-yl}-5-methylpyrrolidin-2-one] | 8.73 |

| Structure (SMILES) | IC50 [nM] |
| --- | --- |
| CN1CCC2CCN(c3cc4nc(Nc5cnn(C6CC6)c5Cl)ncc4cc3Cl)C2C1 (stereo not shown) [Ex-1.42, 6-chloro-N-(5-chloro-1-cyclopropyl-1H-pyrazol-4-yl)-7-(6-methyloctahydro-1H-pyrrolo[2,3-c]pyridin-1-yl)quinazolin-2-amine] | 25.6 |
| Cn1ncc(Nc2ncc3cc(Cl)c(N4CCN(C5COCC5O)CC4)cc3n2)c1Cl (single isomer, unassigned) [Ex-6.7, (3S,4S) or (3R,4R) 4-(4-{6-chloro-2-[(5-chloro-1-methyl-1H-pyrazol-4-yl)amino]quinazolin-7-yl}piperazin-1-yl)oxolan-3-ol] | 1.59 |
| OC1CCN(c2cc3nc(Nc4cnn(C5CC5)c4)ncc3cc2Cl)CC1 [Ex-3.7, 1-{6-chloro-2-[(1-cyclopropyl-1H-pyrazol-4-yl)amino]quinazolin-7-yl} piperidin-4-ol] | 1.44 |
| Cc1cc2cnc(Nc3cnn(C)c3C)nc2cc1N1CCN(C2COCC2O)CC1 (single isomer, unassigned) [Ex-2.3, (3S,4S or 3R,4R)-4-(4-{2-[(1,5-dimethyl-1H-pyrazol-4-yl)amino]-6-methylquinazolin-7-yl}piperazin-1-yl)oxolan-3-ol] | 1.77 |
| Cc1c(Nc2ncc3cc(F)c(NCC4CC4)nc3n2)cnn1C1CCOCC1 [Ex-15.5, N-7-(cyclopropylmethyl)-6-fluoro-N-2-[5-methyl-1-(oxan-4-yl)-1H-pyrazol-4-yl]pyrido[2,3-d]pyrimidine-2,7-diamine] | 32.6 |
| COC1CCC1n1ncc(Nc2ncc3cc(Cl)c(N4CCC(C)(O)CC4)cc3n2)c1C (single isomer, unassigned) [Ex-6.17, 1-[6-chloro-2-({1-[(1R,2S) or (1S,2R)-2-methoxycyclobutyl]-5-methyl-1H-pyrazol-4-yl}amino)quinazolin-7-yl]-4-methylpiperidin-4-ol] | 10.5 |
| OC1C2CC1CN(c1cc3nc(Nc4cnn(C5CC5)c4Cl)ncc3cc1Cl)C2 (stereo not shown) [Ex-1.35, 3-{6-chloro-2-[(5-chloro-1-cyclopropyl-1H-pyrazol-4-yl)amino]quinazolin-7-yl}-3-azabicyclo[3.1.1]heptan-6-ol] | 3.48 |
| OC[C@H]1CCN(c2cc3nc(Nc4cnn(CC(F)F)c4Cl)ncc3cc2Cl)C1 [Ex-1.20, [(3S)-1-(6-chloro-2-{[5-chloro-1-(2,2-difluoroethyl)-1H-pyrazol-4-yl]amino}quinazolin-7-yl)pyrrolidin-3-yl]methanol] | 8.23 |
| Cc1c(Nc2ncc3ccc(N4C(=O)OC[C@@H]4C)cc3n2)cnn1C1C[C@@H](C)O[C@@H](C)C1 (single isomer, unassigned) [Ex-7.4] | 6.75 |
| OC1COCC1N1CCN(c2cc3nc(Nc4cnn(C5CC5(F)F)c4Cl)ncc3cc2Cl)CC1 (single isomer, unassigned) [Ex-6.27, (3S,4S) or (3R,4R) 4-[4-(6-chloro-2-{[5-chloro-1-(2,2-(R) or (S)difluorocyclopropyl)-1H-pyrazol-4-yl]amino}quinazolin-7-yl)piperazin-1-yl]oxolan-3-ol] | 0.27 |
| COCC12CC(n3cc(Nc4ncc5cc(Cl)c(N6CCC7(CCCO7)CC6)cc5n4)cn3)(C1)C2 [Ex-3.34, 6-chloro-N-{1-[3-(methoxymethyl)bicyclo[1.1.1]pentan-1-yl]-1H-pyrazol-4-yl}-7-(1-oxa-8-azaspiro [4.5]decan-8-yl)quinazolin-2-amine] | 0.594 |
| CC1(O)CCN(c2cc3nc(Nc4cnn(CC(F)F)c4Cl)ncc3cc2Cl)C1 (stereo not shown) [Ex-1.14, 1-(6-chloro-2-{[5-chloro-1-(2,2-difluoroethyl)-1H-pyrazol-4-yl]amino}quinazolin-7-yl)-3-methylpyrrolidin-3-ol] | 4.71 |
| Cn1ncc(Nc2ncc3cc(Cl)c(N4CCN(C5(C)COCC5O)CC4)cc3n2)c1Cl (single isomer, unassigned) [Ex-6.36, (3S,4S) or (3R,4R) 4-[4-{6-chloro-2-[(5-chloro-1-methyl-1H-pyrazol-4-yl)amino]quinazolin-7-yl}piperazin-1-yl)-4-methyloxolan-3-ol] | 11.2 |
| Cc1c(Nc2ncc3cc(Cl)c(N4CCN(C5(C)COCC5O)CC4)cc3n2)cnn1C1CC1(F)F (single isomer, unassigned) [Ex-6.38, (3S,4S) or (3R,4R) 4-[4-(6-chloro-2-{[1-(2,2-(R) or (S)difluorocyclopropyl)-5-methyl-1H-pyrazol-4-yl]amino}quinazolin-7-yl)piperazin-1-yl]-4-methyloxolan-3-ol] | 0.835 |
| CNc1cc2nc(Nc3cnn(C4CCN(C5(C)COC5)CC4)c3Cl)ncc2cc1Cl [Ex-3.44, 6-chloro-N~2~-{5-chloro-1-[1-(3-methyloxetan-3-yl)piperidin-4-yl]-1H-pyrazol-4-yl}-N~7~-methyl-quinazoline-2,7-diamine] | 19.5 |
